Measured values taken from ChEMBL document CHEMBL3988442, “University of Dundee, Small-Polar-MMV Screening Library” (2021).

Biological target: T1, Ubiquitin-activating enzyme e1, putative (Leishmania donovani (strain BPK282A1), UniProt E9BSI1)
T1 sequence (E9BSI1 whole entry): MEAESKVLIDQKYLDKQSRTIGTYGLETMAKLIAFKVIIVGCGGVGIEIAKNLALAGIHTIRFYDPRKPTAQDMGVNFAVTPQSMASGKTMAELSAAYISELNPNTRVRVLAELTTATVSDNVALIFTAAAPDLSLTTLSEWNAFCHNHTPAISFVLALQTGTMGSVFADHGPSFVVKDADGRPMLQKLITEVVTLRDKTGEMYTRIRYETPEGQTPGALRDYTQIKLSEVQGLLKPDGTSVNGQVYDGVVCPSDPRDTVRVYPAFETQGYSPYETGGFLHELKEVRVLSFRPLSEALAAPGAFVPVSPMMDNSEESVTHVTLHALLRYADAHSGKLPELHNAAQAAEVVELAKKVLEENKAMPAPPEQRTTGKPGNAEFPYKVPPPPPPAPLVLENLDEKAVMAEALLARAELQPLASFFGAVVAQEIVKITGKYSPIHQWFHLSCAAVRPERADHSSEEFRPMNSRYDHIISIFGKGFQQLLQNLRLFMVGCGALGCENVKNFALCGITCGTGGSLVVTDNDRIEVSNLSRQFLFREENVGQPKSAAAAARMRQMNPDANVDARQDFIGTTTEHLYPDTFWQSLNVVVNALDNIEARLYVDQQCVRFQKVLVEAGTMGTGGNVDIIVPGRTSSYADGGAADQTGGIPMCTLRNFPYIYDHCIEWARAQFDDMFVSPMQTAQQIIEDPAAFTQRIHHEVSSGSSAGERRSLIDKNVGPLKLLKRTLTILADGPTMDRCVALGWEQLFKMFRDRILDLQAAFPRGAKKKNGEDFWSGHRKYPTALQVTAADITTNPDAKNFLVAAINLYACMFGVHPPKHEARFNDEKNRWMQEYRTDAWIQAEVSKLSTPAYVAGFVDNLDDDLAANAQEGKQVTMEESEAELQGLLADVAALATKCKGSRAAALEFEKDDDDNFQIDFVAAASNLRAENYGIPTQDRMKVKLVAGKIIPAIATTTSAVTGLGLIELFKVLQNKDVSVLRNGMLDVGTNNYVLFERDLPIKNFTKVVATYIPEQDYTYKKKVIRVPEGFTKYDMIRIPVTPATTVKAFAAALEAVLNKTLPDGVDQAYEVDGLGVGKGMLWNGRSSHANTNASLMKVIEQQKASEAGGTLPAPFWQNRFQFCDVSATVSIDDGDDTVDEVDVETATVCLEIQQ
Assay: Leishmania donovani Ubiquitin Activating Enzyme (LdE1)
Assay type: functional

| IC50 [µM] | SMILES |
| --- | --- |
| > 100 | CC(C)c1nc2n(n1)CC(NCc1nc(C3CC3)no1)CC2 (stereo unspecified) |
| > 100 | Cc1nc(C)c(C(=O)NCCNc2ncccc2C(F)(F)F)s1 |
| > 100 | CC(O)CN1CCN(C(=O)c2ccc(N(C)C)nc2)CC1 (stereo unspecified) |
| > 100 | CC(NC(=O)NCCNc1ncccn1)c1cccs1 (stereo unspecified) |
| > 100 | Cc1nc(C(C)(C)C)sc1C(=O)NCCNc1ncccc1C#N |
| > 100 | O=C(CCNC(=O)C1CCCC1)NCc1ccccc1Cn1cncn1 |
| > 100 | CC(Oc1ccccc1)C(=O)N1CCCN(Cc2nccn2C)CC1 (stereo unspecified) |
| > 100 | CCn1nc2c(cc1=O)CN(Cc1nnc(C3CC3)o1)CC2 |
| > 100 | CCC(O)CN1CCN(C(=O)c2ccc(N(C)C)nn2)CC1 (stereo unspecified) |
| > 100 | CC(C)N1CCC(Cc2cc(-c3cccc(C(=O)O)c3)ncn2)CC1 |
| > 100 | O=C(NCc1ccccc1Cn1cncn1)C1CCCCC1 |
| > 100 | Cc1cc(C)n(CC2CCCN2Cc2ncc(C(C)(C)C)o2)n1 (stereo unspecified) |
| > 100 | Cc1nc(C(C)C)sc1C(=O)NCCNc1ncccc1C#N |
| > 100 | Cc1ccoc1C(=O)N1C[C@@H]2COC[C@]2(COCc2cccnc2)C1 |
| > 100 | Cc1cnn(CC(C)NCc2nc(-c3cccs3)no2)c1 (stereo unspecified) |
| > 100 | O=C(c1ccccc1F)N1C[C@@H]2COC[C@]2(COCc2cccnc2)C1 |
| > 100 | Cc1cc(C(=O)N2C[C@@H]3COC[C@]3(COCc3cccnc3)C2)no1 |
| > 100 | O=C(Cc1ccsc1)N1C[C@@H]2COC[C@]2(COCc2cccnc2)C1 |
| > 100 | O=C(c1ncccn1)N1C[C@@H]2COC[C@]2(COCc2cccnc2)C1 |
| > 100 | CC(C)C(NC(=O)NCCNc1cnccn1)c1cccs1 (stereo unspecified) |
| > 100 | Cc1ncsc1C(=O)NCCNc1ncccc1C#N |
| > 100 | Cn1ccnc1CN1CCCN(C(=O)COCC2CC2)CC1 |

| IC50 [µM] | SMILES |
| --- | --- |
| > 100 | Cc1nc(C)n(CC2CCCCN2Cc2cnc(C)s2)n1 (stereo unspecified) |
| > 100 | CC(O)CN1CCN(C(=O)c2ccc(N3CCCC3)nn2)CC1 (stereo unspecified) |
| > 100 | CC(C)N1CCC(Cc2cnc(-c3cccc(C(=O)O)c3)cn2)C1 (stereo unspecified) |
| > 100 | COc1ccc(CNCc2ccnc(N3CCCCC3)c2)cc1OC |
| > 100 | Cn1nc2c(cc1=O)CN(Cc1coc(-c3ccccc3)n1)CC2 |
| > 100 | CC(OCC1CC1)C(=O)N1CCCN(Cc2nccn2C(C)C)CC1 (stereo unspecified) |
| > 100 | Cn1ccnc1CN1CCCN(C(=O)CC(C2CC2)C2CC2)CC1 |
| > 100 | Cc1ccc(C(=O)NCCNc2ncccc2C#N)c(=O)[nH]1 |
| > 100 | COc1cc(CNCc2ccnc(N3CCCC3)c2)cc(OC)c1 |
| > 100 | O=C(NCc1ccccc1Cn1cncn1)C1CCC1 |
| > 100 | CCCc1nc(C)c(C(=O)NCCNc2ncccc2C#N)s1 |
| > 100 | Cc1cnn(CC2CCCCN2Cc2ncc(C(C)(C)C)o2)c1 (stereo unspecified) |
| > 100 | CC(C)c1nc2n(n1)CC(NCc1ncc(C(C)(C)C)o1)CC2 (stereo unspecified) |
| > 100 | CNS(=O)(=O)c1ccc(CNC(=O)Nc2cn[nH]c2)cc1 |
| > 100 | O=C(NCc1ccccc1Cn1cncn1)C1CCCC1 |
| > 100 | CC(C)c1nc2n(n1)CC(NCc1nnc(C3CC3)o1)CC2 (stereo unspecified) |
| > 100 | c1csc(-c2noc(CNCCn3cccn3)n2)c1 |
| > 100 | CC(C)c1nc2n(n1)CC(NCc1nnnn1C1CC1)CC2 (stereo unspecified) |
| > 100 | O=C(NCc1ccccc1Cn1cncn1)C1CC1 |
| > 100 | Cc1ccccc1C(=O)N1C[C@@H]2COC[C@]2(COCc2cccnc2)C1 |
| > 100 | O=C(Cc1cccs1)N1C[C@@H]2COC[C@]2(COCc2cccnc2)C1 |
| > 100 | COc1ccc(CNCc2ccnc(N3CCOCC3)c2)cc1OC |

| SMILES | IC50 [µM] |
| --- | --- |
| CC[C@@H]1N(C)CCC[C@]12CCC(=O)N2Cc1ccncc1 | > 100 |
| CC[C@H]1NCCC[C@]12CCC(=O)N2Cc1ccncc1 | > 100 |
